The values that follow come from paper PMC5671392, “Optimization of an in vitro assay methodology for competitive binding of thyroidogenic xenobiotics with thyroxine on human transthyretin and albumin” (MethodsX, 2017).

Assay [1] has as its target human transthyretin (TTR) (Homo sapiens, UniProt P02766). The assay can be described thus: Competitive T4 radio-ligand (125I-T4) binding assay with human transthyretin. Particulars: 30 nM TTR.
Source text: (§1) The entire assay takes two days to complete for each batch of samples to be processed. The Day 1 procedure is described as follows. […] First, thaw the working solutions of these components to room temperature if they have been placed in frozen storage. For the protein working solutions, prepare the day they are to be used based on the number of assay aliquots required (one vial is sufficient for approximately 45 assay samples). […] Label a series of polypropylene test tubes corresponding to the samples being prepared. This should include triplicate samples for each ligand competitor concentration.
(§2) The following steps describe the order of pipetting components for assay incubation mixtures. • 1. […] Continue for each increasing concentration of the ligand. Control samples receive 5 μL of DMSO in place of a competitor ligand. • 2. […] Centrifuge the samples at 300 × g for 30 s to force the solution to the bottom of the tube. • 4. Measure the initial radioactivity on the gamma counter. […]
(§3) Label a series of clean test tubes corresponding to the samples prepared on Day 1 and repeat these labels on Bio-Spin® columns. Work on one replicate set at a time, leaving the remaining columns and incubation mixtures in the fridge until ready for processing. […] Measure the radioactivity of the eluate fraction, as well as the residual radioactivity in the incubation tubes containing the discarded pipette tips. […]
For assay [2], the target named is human albumin (ALB) (Homo sapiens, UniProt P02768). Put plainly: Competitive T4 radio-ligand (125I-T4) binding assay with human albumin. Particulars: 600 nM ALB.
Chain of human albumin (ALB) (P02768 25-609): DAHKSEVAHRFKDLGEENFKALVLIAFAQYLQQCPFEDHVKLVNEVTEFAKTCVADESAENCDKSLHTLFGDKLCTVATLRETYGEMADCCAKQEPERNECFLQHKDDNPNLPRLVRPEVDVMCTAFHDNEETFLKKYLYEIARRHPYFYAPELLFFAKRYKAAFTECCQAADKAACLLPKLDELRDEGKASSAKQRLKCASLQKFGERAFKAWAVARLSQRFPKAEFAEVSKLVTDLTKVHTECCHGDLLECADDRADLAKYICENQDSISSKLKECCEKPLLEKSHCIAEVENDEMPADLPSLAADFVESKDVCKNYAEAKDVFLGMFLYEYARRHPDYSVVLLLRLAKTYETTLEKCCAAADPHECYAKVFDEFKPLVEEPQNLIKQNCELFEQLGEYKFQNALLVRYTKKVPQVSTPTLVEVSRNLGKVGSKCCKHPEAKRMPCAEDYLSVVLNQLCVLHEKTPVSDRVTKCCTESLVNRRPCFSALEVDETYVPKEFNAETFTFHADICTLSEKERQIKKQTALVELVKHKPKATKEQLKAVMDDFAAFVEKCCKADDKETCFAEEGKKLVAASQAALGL
Source text: as §1, §2, §3
Assay [3] concerns human TTR isolated from human plasma. On the set-up: method as in PMID 19033396. The conditions noted are these: in vitro; cited from earlier work.

As usually defined, the IC50 is the concentration at which inhibition is half-maximal. A word on the Ki: it is a measure of affinity in units of concentration, obtained from inhibition or displacement. For `Oc1cc(Br)c(Oc2ccc(Br)cc2Br)cc1Br` [4-OH-BDE-49, 4′-hydroxy-2,2′,4,5′-tetrabromodiphenyl ether], the IC50 in assay [1] (read-out: IC50, T4-TTR competitive binding, 55 nM T4 + 125I-T4, overnight at 4 °C, Tris-EDTA pH 8.0, 6 replicates) worked out at 12.2 nM; in assay [2] (read-out: IC50, T4-ALB competitive binding, 55 nM T4 + 125I-T4, overnight at 4 °C, Tris-EDTA pH 8.0, 6 replicates), 1.15 nM. Moreover, the Ki in assay [1] (read-out: Ki, T4-TTR competitive binding, calculated from IC50 after Cheng and Prusoff, unit inferred) is 12.2 nM; in assay [2] (read-out: Ki, T4-ALB competitive binding, calculated from IC50 after Cheng and Prusoff, unit inferred), 1.08 nM. The “Binding affinity for human TTR compared with T4” value in assay [3] was “higher affinity than T4”.
